Experimental data taken from patent US6603044B1, “Phthalamide derivatives, or salt thereof agrohorticultural insecticide, and method for using the same” (Nihon Nohyaku Co., Ltd., priority 1998, dated 2003).

What was measured:
Assay type in all cases: in vivo
[1] = system: Diamond Back Moth (Plutella xylostella); assay: Insecticidal effect on diamond back moth (Test Example 1); conditions: 50 ppm; Chinese cabbage seedling with deposited eggs immersed about 30 seconds; 25° C.; six days after the immersion
From the text: Insecticidal Effect on Diamond Back Moth (Plutella xylostella)
Adult diamondback moths were released and allowed to oviposit on a Chinese cabbage seedling. Two days after the release, the seedling having the eggs deposited thereon was immersed for about 30 seconds in a liquid chemical prepared by diluting a preparation containing each compound listed in Table 1, 2 or 3 as an active ingredient to adjust the concentration to 50 ppm. After air-dryness, it was allowed to stand in a room thermostatted at 25° C. Six days after the immersion, the hatched insects were counted. The mortality was calculated according to the following equation and the insecticidal effect was judged according to the criterion shown below. The test was carried out with triplicate groups of 10 insects.

[2] = system: Common Cutworm (Spodoptera Litura); assay: Insecticidal effect on common cutworm (Test Example 2); conditions: 50 ppm; cabbage leaf immersed about 30 seconds; second-instar larvae; 25° C.; eight days after the inoculation
From the text: Insecticidal Effect on Common Cutworm (Spodoptera Litura)
A piece of cabbage leaf (cultivar; Shikidori) was immersed for about 30 seconds in a liquid chemical prepared by diluting a preparation containing each compound listed in Table 1, 2 or 3 as an active ingredient to adjust the concentration to 50 ppm. After air-dryness, it was placed in a plastic Petri dish with a diameter of 9 cm and inoculated with second-instar larvae of common cutworm, after which the dish was closed and then allowed to stand in a room thermostatted at 25° C. Eight days after the inoculation, the dead and alive were counted. The mortality was calculated according to the following equation and the insecticidal effect was judged according to the criterion shown in Test Example 1. The test was carried out with triplicate groups of 10 insects. [formula]

[3] = system: Smaller tea Tortrix (Adoxophyes sp.); assay: Insecticidal effect on smaller tea tortrix (Test Example 3); conditions: 50 ppm; tea leaf immersed 30 seconds; larvae; 25° C., humidity 70%; eight days after the inoculation
Description: Insecticidal Effect on Smaller tea Tortrix (Adoxophyes sp.)
A leaf of tea tree was immersed for 30 seconds in a liquid chemical containing each compound listed in Table 1, 2 or 3 as an active ingredient to adjust the concentration to 50 ppm. After air-dryness, the leaf was transferred to a plastic dish with a diameter of 9 cm and inoculated with larval smaller tea tortrix. Then, the leaf was allowed to stand in a room thermostatted at 25° C. at a humidity of 70%. Eight days after the inoculation, the dead and alive were counted, and the insecticidal effect was judged according to the same criterion as mentioned in Test Example 1. The test was carried out with triplicate groups of 10 insects.

CCN(CCSC)C(=O)c1c(F)cccc1C(=O)Nc1ccc(C(F)(C(F)(F)F)C(F)(F)F)cc1C [2-5]
Test Example 1 insecticidal effect (mortality) [1]: A (100)
Test Example 2 insecticidal effect (mortality) [2]: C (89-80)

CCN(CCCSC)C(=O)c1c(F)cccc1C(=O)Nc1ccc(C(F)(C(F)(F)F)C(F)(F)F)cc1C [2-6]
Test Example 1 insecticidal effect (mortality) [1]: A (100)
Test Example 2 insecticidal effect (mortality) [2]: D (79-50)

CCN(CSC)C(=O)c1c(Cl)cccc1C(=O)Nc1ccc(C(F)(C(F)(F)F)C(F)(F)F)cc1C [2-8]
Test Example 1 insecticidal effect (mortality) [1]: A (100)
Test Example 2 insecticidal effect (mortality) [2]: A (100)

CCN(CSC)C(=O)c1c(Cl)cccc1C(=O)Nc1ccc(OC(F)(F)C(F)(F)F)cc1C [2-17]
Test Example 1 insecticidal effect (mortality) [1]: A (100)
Test Example 2 insecticidal effect (mortality) [2]: A (100)

CCS(=O)(=O)CCCCC(C)NC(=O)c1c(I)cccc1C(=O)Nc1ccc(C(F)(F)C(F)(F)F)cc1C (stereo not shown) [compound 179]
Test Example 1 insecticidal effect (mortality) [1]: A (100)
Test Example 3 insecticidal effect (mortality) [3]: A (100)

CCS(=O)(=O)CCCCC(C)NC(=O)c1c(I)cccc1C(=O)Nc1ccc(C(F)(C(F)(F)F)C(F)(F)F)cc1C (stereo not shown) [compound 180]
Test Example 1 insecticidal effect (mortality) [1]: A (100)
Test Example 3 insecticidal effect (mortality) [3]: A (100)

CSCCSCC(C)NC(=O)c1c(I)cccc1C(=O)Nc1ccc(OC(F)(F)F)cc1C (stereo not shown) [compound 190]
Test Example 1 insecticidal effect (mortality) [1]: A (100)
Test Example 3 insecticidal effect (mortality) [3]: A (100)

CC[S+]([O-])CCCC(C)NC(=O)c1c(I)cccc1C(=O)Nc1ccc(C(F)(C(F)(F)F)C(F)(F)F)cc1C (stereo not shown) [compound 202]
Test Example 1 insecticidal effect (mortality) [1]: A (100)
Test Example 3 insecticidal effect (mortality) [3]: A (100)

CCS(=O)(=O)CCCC(C)NC(=O)c1c(Br)cccc1C(=O)Nc1ccc(C(F)(C(F)(F)F)C(F)(F)F)cc1C (stereo not shown) [compound 215]
Test Example 1 insecticidal effect (mortality) [1]: A (100)
Test Example 3 insecticidal effect (mortality) [3]: A (100)

CSCC(C)NC(=O)c1c(C(=O)Nc2ccc(Oc3ncc(C(F)(F)F)cc3Cl)cc2C)cccc1[N+](=O)[O-] (stereo not shown) [compound 224]
Test Example 1 insecticidal effect (mortality) [1]: A (100)
Test Example 3 insecticidal effect (mortality) [3]: A (100)

CSCC(C)(C)NC(=O)c1c(C(=O)Nc2ccc(OC(F)(F)F)cc2C)ccc2c1OCO2 [compound 252]
Test Example 1 insecticidal effect (mortality) [1]: A (100)
Test Example 3 insecticidal effect (mortality) [3]: A (100)

CSC1CCCCC1NC(=O)c1c(I)cccc1C(=O)Nc1ccc(C(F)(C(F)(F)F)C(F)(F)F)cc1C (stereo not shown) [compound 273]
Test Example 1 insecticidal effect (mortality) [1]: A (100)
Test Example 3 insecticidal effect (mortality) [3]: C (89-80)

Cc1cc(OC(F)(F)F)ccc1NC(=O)c1ccc2c(c1C(=O)NC(C)(C)CS(C)(=O)=O)OC(F)(F)O2 [compound 293]
Test Example 1 insecticidal effect (mortality) [1]: A (100)
Test Example 3 insecticidal effect (mortality) [3]: A (100)

CSCNC(=O)c1ccccc1C(=O)Nc1ccc(C(F)(C(F)(F)F)C(F)(F)F)cc1C [compound 298]
Test Example 1 insecticidal effect (mortality) [1]: A (100)
Test Example 3 insecticidal effect (mortality) [3]: A (100)

Cc1cc(C(F)(C(F)(F)F)C(F)(F)F)ccc1NC(=O)c1cccc(I)c1C(=O)NC(C)CSC(=S)N(C)C (stereo not shown) [compound 302]
Test Example 1 insecticidal effect (mortality) [1]: A (100)
Test Example 3 insecticidal effect (mortality) [3]: A (100)

Cc1cc(C(F)(C(F)(F)F)C(F)(F)F)ccc1NC(=O)c1cccc(I)c1C(=O)NC(C)CSc1nc2ccccc2s1 (stereo not shown) [compound 319]
Test Example 1 insecticidal effect (mortality) [1]: A (100)
Test Example 3 insecticidal effect (mortality) [3]: A (100)

CSCC(C)(C)NC(=O)c1c(C(=O)Nc2ccc(Cl)cc2Cl)cccc1[N+](=O)[O-] [compound 326]
Test Example 1 insecticidal effect (mortality) [1]: A (100)
Test Example 3 insecticidal effect (mortality) [3]: A (100)

Cc1cc(C(F)(C(F)(F)F)C(F)(F)F)ccc1NC(=O)c1cccc([N+](=O)[O-])c1C(=O)NC(C)(C)C[S+](C)[O-] (stereo not shown) [compound 327]
Test Example 1 insecticidal effect (mortality) [1]: A (100)
Test Example 3 insecticidal effect (mortality) [3]: A (100)

CSC1CCCC1NC(=O)c1c(I)cccc1C(=O)Nc1ccc(C(F)(C(F)(F)F)C(F)(F)F)cc1C (stereo not shown) [compound 329]
Test Example 1 insecticidal effect (mortality) [1]: A (100)
Test Example 3 insecticidal effect (mortality) [3]: A (100)

CSCC(C)NC(=O)c1cc2ccccc2cc1C(=O)Nc1ccc(C(F)(C(F)(F)F)C(F)(F)F)cc1C (stereo not shown) [compound 332]
Test Example 1 insecticidal effect (mortality) [1]: A (100)
Test Example 3 insecticidal effect (mortality) [3]: A (100)

Cc1cc(C(F)(C(F)(F)F)C(F)(F)F)ccc1NC(=O)c1ccc2ccccc2c1C(=O)NC(C)C[S+](C)[O-] (stereo not shown) [compound 334]
Test Example 1 insecticidal effect (mortality) [1]: A (100)
Test Example 3 insecticidal effect (mortality) [3]: A (100)

Cc1cc(C(F)(C(F)(F)F)C(F)(F)F)ccc1NC(=O)c1ccc2ccccc2c1C(=O)NC(C)CS(C)(=O)=O (stereo not shown) [compound 335]
Test Example 1 insecticidal effect (mortality) [1]: A (100)
Test Example 3 insecticidal effect (mortality) [3]: D (79-50)

Cc1cc(C(F)(C(F)(F)F)C(F)(F)F)ccc1NC(=O)c1cccc(I)c1C(=O)NC(C)C[S+]([O-])c1nc2ccccc2s1 (stereo not shown) [compound 344]
Test Example 1 insecticidal effect (mortality) [1]: A (100)
Test Example 3 insecticidal effect (mortality) [3]: A (100)

Cc1cc(C(F)(C(F)(F)F)C(F)(F)F)ccc1NC(=O)c1cccc(I)c1C(=O)NC(C)CSc1nccs1 (stereo not shown) [compound 352]
Test Example 1 insecticidal effect (mortality) [1]: A (100)
Test Example 3 insecticidal effect (mortality) [3]: A (100)

Cc1nnc(SCC(C)NC(=O)c2c(I)cccc2C(=O)Nc2ccc(C(F)(C(F)(F)F)C(F)(F)F)cc2C)s1 (stereo not shown) [compound 353]
Test Example 1 insecticidal effect (mortality) [1]: A (100)
Test Example 3 insecticidal effect (mortality) [3]: A (100)

CSCC(C)NC(=O)c1c(I)cccc1C(=O)Nc1ccc([Si](C)(C)C)cc1C (stereo not shown) [compound 368]
Test Example 1 insecticidal effect (mortality) [1]: A (100)
Test Example 3 insecticidal effect (mortality) [3]: A (100)

CSCC1(NC(=O)c2c(I)cccc2C(=O)Nc2ccc(C(F)(C(F)(F)F)C(F)(F)F)cc2C)CCCC1 [compound 445]
Test Example 1 insecticidal effect (mortality) [1]: A (100)
Test Example 3 insecticidal effect (mortality) [3]: A (100)

Cc1cc(C(F)(C(F)(F)F)C(F)(F)F)ccc1NC(=O)c1cccc(I)c1C(=O)NC(C)(C)CSCc1ccc(Cl)cc1 [compound 451]
Test Example 1 insecticidal effect (mortality) [1]: A (100)
Test Example 3 insecticidal effect (mortality) [3]: A (100)

Cc1cc(C(F)(C(F)(F)F)C(F)(F)F)ccc1NC(=O)c1cccc(I)c1C(=O)NC(C)CSC(=O)N(C)C (stereo not shown) [compound 461]
Test Example 1 insecticidal effect (mortality) [1]: A (100)
Test Example 3 insecticidal effect (mortality) [3]: D (79-50)

CSCC(C)(C)NC(=O)c1c(I)cccc1C(=O)Nc1ccc(Cc2ccc(Cl)cc2)cc1C [compound 471]
Test Example 1 insecticidal effect (mortality) [1]: A (100)
Test Example 3 insecticidal effect (mortality) [3]: A (100)

CSCC(C)(C)NC(=O)c1c(I)cccc1C(=O)Nc1ccc(C(O)c2ccc(Cl)cc2)cc1C (stereo not shown) [compound 472]
Test Example 1 insecticidal effect (mortality) [1]: A (100)
Test Example 3 insecticidal effect (mortality) [3]: A (100)

CSCC(C)(C)NC(=O)c1c(I)cccc1C(=O)Nc1ccc(Oc2ccc(Cl)cc2)cc1C [compound 473]
Test Example 1 insecticidal effect (mortality) [1]: A (100)
Test Example 3 insecticidal effect (mortality) [3]: B (99-90)

CSCC(C)(C)NC(=O)c1c(I)cccc1C(=O)Nc1ccc(Oc2cccc(Cl)c2)cc1C [compound 474]
Test Example 1 insecticidal effect (mortality) [1]: A (100)
Test Example 3 insecticidal effect (mortality) [3]: D (79-50)

CSCC(C)(C)NC(=O)c1c(I)cccc1C(=O)Nc1ccc(Oc2cccc(C#N)c2)cc1C [compound 475]
Test Example 1 insecticidal effect (mortality) [1]: A (100)
Test Example 3 insecticidal effect (mortality) [3]: A (100)

CSCC(C)(C)NC(=O)c1c(I)cccc1C(=O)Nc1ccc(C(=O)N(C)c2ccc(Cl)cc2)cc1C [compound 480]
Test Example 1 insecticidal effect (mortality) [1]: A (100)
Test Example 3 insecticidal effect (mortality) [3]: A (100)
